Source: the Deep4Chem optical property database
Blank lines part the entries; values can stand above or below the compound they belong to.

Assay: solvent given as SMILES

SMILES: CCCCCCC1(CCCCCC)c2cc(-c3nc(-c4ccc5c(c4)C(CCCCCC)(CCCCCC)c4cc(-n6c7ccc(C(C)(C)C)cc7c7cc(C(C)(C)C)ccc76)ccc4-5)nc(-c4ccc5c(c4)C(CCCCCC)(CCCCCC)c4cc(-n6c7ccc(C(C)(C)C)cc7c7cc(C(C)(C)C)ccc76)ccc4-5)n3)ccc2-c2ccc(-n3c4ccc(C(C)(C)C)cc4c4cc(C(C)(C)C)ccc43)cc21
absorption maximum (in C1CCOC1): 382 nm

SMILES: CC(C)(C)c1ccc2c(c1)c1cc(C(C)(C)C)ccc1n2-c1ccc2oc3nc4oc5ccc(C(F)(F)F)cc5c4cc3c2c1
absorption maximum (in C1CCCCC1): 343 nm | absorption maximum (in C1CCOC1): 338 nm | absorption maximum (in CC#N): 336 nm | absorption maximum (in CS(C)=O): 337 nm | absorption maximum (in Cc1ccccc1): 343 nm | absorption maximum (in ClC(Cl)Cl): 345 nm

SMILES: CCC1=C(C2=C(C3=C(CC)S(=O)(=O)c4cc(-c5ccc(C(C)=O)s5)ccc43)C(F)(F)C(F)(F)C2(F)F)c2ccc(-c3ccc(C(C)=O)s3)cc2S1(=O)=O
absorption maximum (in C1COCCO1): 363 nm

SMILES: CCCCC1(c2ccccc2)Nc2c(-c3ccc(N(c4ccccc4)c4ccccc4)cc3)ccc(-c3ccc(N(c4ccccc4)c4ccccc4)cc3)c2N=C1c1ccccc1 (stereo not drawn)
absorption maximum (in ClC(Cl)Cl): 370 nm

SMILES: CCCn1c2cccc3c2[c+]2c4c1cccc4n(CCC)c1cccc(c12)n3CCC
absorption maximum (in CC#N): 521 nm

SMILES: CCN(CC)c1ccc2c(-c3ccc(S(=O)(=O)O)cc3S(=O)(=O)[O-])c3ccc(=[N+](CC)CC)cc-3oc2c1
absorption maximum (in CC#N): 551 nm | absorption maximum (in CCO): 556 nm | absorption maximum (in CN(C)C=O): 554 nm | absorption maximum (in O): 554 nm

SMILES: C(#Cc1ccccc1)C(C#Cc1ccccc1)=Cc1ccc2cc(C=C(C#Cc3ccccc3)C#Cc3ccccc3)ccc2c1
absorption maximum (in ClC(Cl)Cl): 418 nm

SMILES: COc1ccc(C(=Cc2ccc(/C=C/c3ccc(C#N)cc3)cc2)c2ccc(OC)cc2)cc1
absorption maximum (in C1CCOC1): 379 nm

SMILES: CN(C)CCNCc1c2ccccc2cc2ccccc12
absorption maximum (in C1CCCCC1): 368 nm | absorption maximum (in C1CCOC1): 366 nm | absorption maximum (in CC#N): 365 nm | absorption maximum (in CC(C)=O): 365 nm | absorption maximum (in CCO): 366 nm | absorption maximum (in CN(C)C=O): 363 nm | absorption maximum (in CO): 364 nm | absorption maximum (in ClC(Cl)Cl): 367 nm

SMILES: Nc1nc(/C=C/c2ccc(N(c3ccccc3)c3ccccc3)cc2)cc(/C=C/c2ccc(N(c3ccccc3)c3ccccc3)cc2)n1
absorption maximum (in Cc1ccccc1): 417 nm | absorption maximum (in ClC(Cl)Cl): 432 nm

SMILES: CC(C)(C)c1ccc2c(c1)c1cc(C(C)(C)C)ccc1n2-c1ccc2c(c1)C(=O)c1ccc(-n3c4ccc(C(C)(C)C)cc4c4cc(C(C)(C)C)ccc43)cc1C2=O
absorption maximum (in Cc1ccccc1): 463 nm

SMILES: COc1ccc(-n2nc(C#N)c(N3CCC(N4CCCCC4)CC3)n2)cc1
absorption maximum (in CC#N): 325 nm

SMILES: Cc1cc2nc3[nH]c(=O)n(C)c(=O)c3nc2cc1C
absorption maximum (in CC#N): 379 nm

SMILES: CC(C)(C)c1ccc(C2=c3sc(-c4ccc(C(C)(C)C)cc4)cc3=[N+]3C2=Nc2c(-c4ccc(C(C)(C)C)cc4)c4sc(-c5ccc(C(C)(C)C)cc5)cc4n2[B-]3(F)F)cc1
absorption maximum (in ClC(Cl)Cl): 767 nm

SMILES: CCCCN1C(=O)c2ccc3c4c(Br)cc5c6c(ccc(c7c(Br)cc(c2c37)C1=O)c64)C(=O)N(CCCC)C5=O
absorption maximum (in ClC(Cl)Cl): 524 nm

Second part, the compound after the results:

absorption maximum (in CCOC(C)=O): 292 nm
SMILES: CCn1c(-c2ccc(-c3cccc4ccccc34)cc2)c(-c2ccc3ccccc3c2)c(-c2ccc3ccccc3c2)c1-c1ccc(-c2cccc3ccccc23)cc1

absorption maximum (in ClCCl): 525 nm
SMILES: Clc1nnc(Oc2ccc(N(c3ccccc3)c3ccccc3)cc2)nn1

absorption maximum (in CC#N): 305 nm | absorption maximum (in CCCCCC): 375 nm | absorption maximum (in CO): 356 nm | absorption maximum (in ClC(Cl)Cl): 394 nm
SMILES: c1ccc2cc3cc(-c4cc(-c5nccs5)nc(-c5nccs5)c4)ccc3cc2c1

absorption maximum (in ClCCl): 520 nm
SMILES: COc1ccc(C#Cc2c3ccccc3c(C#Cc3ccc(OC)cc3)c3cc4sc(C)cc4cc23)cc1

absorption maximum (in CN(C)C=O): 330 nm
SMILES: Cc1cc(-c2ccc(-c3nc4ccccc4[nH]3)cc2)ccc1-c1ccc(-c2nc3ccccc3[nH]2)cc1

absorption maximum (in C1COCCO1): 447 nm | absorption maximum (in CC#N): 441 nm | absorption maximum (in CCCCOCCCC): 453 nm | absorption maximum (in CCOC(C)=O): 451 nm
SMILES: CC(=O)Nc1ccc2c3cccc4cccc(c5cccc1c52)c43

absorption maximum (in ClCCl): 418 nm
SMILES: Clc1ccc(N2c3sc4ccccc4c3Sc3c2sc2ccccc32)cc1

absorption maximum (in C1CCCCC1): 405 nm
SMILES: N#Cc1cc(-c2ccccc2)c(N2c3ccccc3Oc3ccccc32)c(-c2ccccc2)c1

absorption maximum (in C1CCOC1): 424 nm | absorption maximum (in CC#N): 424 nm | absorption maximum (in CCCCCCC): 418 nm | absorption maximum (in CS(C)=O): 435 nm | absorption maximum (in ClCCl): 427 nm
SMILES: CN(C)c1ccc(/C=C/c2cnc3ccccc3n2)cc1

absorption maximum (in ClCCl): 444 nm
SMILES: COc1ccc(/C=C/C2=CC(c3ccccc3)=[O+][B-](F)(F)O2)cc1

absorption maximum (in ClC(Cl)Cl): 371 nm
SMILES: CCCCC1(c2ccccc2)Nc2c(-c3ccc(N(C)C)cc3)ccc(-c3ccc(N(C)C)cc3)c2N=C1c1ccccc1 (stereo not drawn)

absorption maximum (in ClCCl): 472 nm
SMILES: F[B-]1(F)n2c(Oc3ccccc3)c(Cl)c3c2C(=C2C(Br)=C(Cl)C(Oc4ccccc4)=[N+]21)Oc1ccccc1-3
